The results in this text go back to patent US11174268B2, “Benzenesulfonamide compouds and their use as therapeutic agents” (Xenon Pharmaceuticals Inc., priority 2016, dated 2021).

The target of data set [1] is T1, NaV1.6 (Homo sapiens (Human), UniProt Q9UQD0). Put plainly: Sodium Influx Assay (Flux), NaV1.6.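 Also: Tetracycline-induced cells, compounds applied for one hour at room temperature with modulators holding channels open, IC50 from percent inhibition of sodium influx.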 The settings on record: Trex HEK293 cells, ANG2 dye, inactivated state. Format: cell-based.
Data set [2] addresses T2, NaV1.1 (Homo sapiens (Human), UniProt P35498). Put plainly: Electrophysiological Assay (EP), patch voltage clamp, NaV1.1.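 Also: sodium current block measured at ambient temperature, holding at fully inactivating potential, 20 ms repolarization to −150 mV before test pulse, versus 0.5% DMSO control currents.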 The following applies: HEK-293 cells, whole-cell patch clamp. Type of data set: cell-based. On the technique in general: In patch-clamp work, channel activity is measured electrically.
Data set [3] deals with T2, NaV1.1. In words: Sodium Influx Assay (Flux), NaV1.1.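 Also: channels co-expressed with human β1 subunit and held open by modulators, cells exposed to compounds for one hour at room temperature, IC50 from percent inhibition of influx.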 Type of data set: cell-based. The following applies: Trex HEK293 cells, ANG2 dye, inactivated state.
Data set [4] addresses T1, NaV1.6. Put plainly: Electrophysiological Assay (EP), patch voltage clamp, NaV1.6.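 Also: sodium current recorded at ambient temperature, channels held inactivated then briefly repolarized to −150 mV for 20 ms before a test pulse, control currents in 0.5% DMSO.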 Type of data set: cell-based. The settings on record: HEK-293 cells, whole-cell patch clamp.
The target in the next data set is NaV1.5 (Homo sapiens (Human), UniProt Q14524). Put plainly: Sodium Influx Assay (Flux), NaV1.5.
[5] abbreviates: read-out: Flux NaV1.5 IC50, Trex HEK293 cells, ANG2 dye, inactivated state.

Structures are written as SMILES. Structures can show the parent of a compound that is named as a salt. Where two headings read alike, the source gives them in different places.

T1 sequence (Q9UQD0 whole entry): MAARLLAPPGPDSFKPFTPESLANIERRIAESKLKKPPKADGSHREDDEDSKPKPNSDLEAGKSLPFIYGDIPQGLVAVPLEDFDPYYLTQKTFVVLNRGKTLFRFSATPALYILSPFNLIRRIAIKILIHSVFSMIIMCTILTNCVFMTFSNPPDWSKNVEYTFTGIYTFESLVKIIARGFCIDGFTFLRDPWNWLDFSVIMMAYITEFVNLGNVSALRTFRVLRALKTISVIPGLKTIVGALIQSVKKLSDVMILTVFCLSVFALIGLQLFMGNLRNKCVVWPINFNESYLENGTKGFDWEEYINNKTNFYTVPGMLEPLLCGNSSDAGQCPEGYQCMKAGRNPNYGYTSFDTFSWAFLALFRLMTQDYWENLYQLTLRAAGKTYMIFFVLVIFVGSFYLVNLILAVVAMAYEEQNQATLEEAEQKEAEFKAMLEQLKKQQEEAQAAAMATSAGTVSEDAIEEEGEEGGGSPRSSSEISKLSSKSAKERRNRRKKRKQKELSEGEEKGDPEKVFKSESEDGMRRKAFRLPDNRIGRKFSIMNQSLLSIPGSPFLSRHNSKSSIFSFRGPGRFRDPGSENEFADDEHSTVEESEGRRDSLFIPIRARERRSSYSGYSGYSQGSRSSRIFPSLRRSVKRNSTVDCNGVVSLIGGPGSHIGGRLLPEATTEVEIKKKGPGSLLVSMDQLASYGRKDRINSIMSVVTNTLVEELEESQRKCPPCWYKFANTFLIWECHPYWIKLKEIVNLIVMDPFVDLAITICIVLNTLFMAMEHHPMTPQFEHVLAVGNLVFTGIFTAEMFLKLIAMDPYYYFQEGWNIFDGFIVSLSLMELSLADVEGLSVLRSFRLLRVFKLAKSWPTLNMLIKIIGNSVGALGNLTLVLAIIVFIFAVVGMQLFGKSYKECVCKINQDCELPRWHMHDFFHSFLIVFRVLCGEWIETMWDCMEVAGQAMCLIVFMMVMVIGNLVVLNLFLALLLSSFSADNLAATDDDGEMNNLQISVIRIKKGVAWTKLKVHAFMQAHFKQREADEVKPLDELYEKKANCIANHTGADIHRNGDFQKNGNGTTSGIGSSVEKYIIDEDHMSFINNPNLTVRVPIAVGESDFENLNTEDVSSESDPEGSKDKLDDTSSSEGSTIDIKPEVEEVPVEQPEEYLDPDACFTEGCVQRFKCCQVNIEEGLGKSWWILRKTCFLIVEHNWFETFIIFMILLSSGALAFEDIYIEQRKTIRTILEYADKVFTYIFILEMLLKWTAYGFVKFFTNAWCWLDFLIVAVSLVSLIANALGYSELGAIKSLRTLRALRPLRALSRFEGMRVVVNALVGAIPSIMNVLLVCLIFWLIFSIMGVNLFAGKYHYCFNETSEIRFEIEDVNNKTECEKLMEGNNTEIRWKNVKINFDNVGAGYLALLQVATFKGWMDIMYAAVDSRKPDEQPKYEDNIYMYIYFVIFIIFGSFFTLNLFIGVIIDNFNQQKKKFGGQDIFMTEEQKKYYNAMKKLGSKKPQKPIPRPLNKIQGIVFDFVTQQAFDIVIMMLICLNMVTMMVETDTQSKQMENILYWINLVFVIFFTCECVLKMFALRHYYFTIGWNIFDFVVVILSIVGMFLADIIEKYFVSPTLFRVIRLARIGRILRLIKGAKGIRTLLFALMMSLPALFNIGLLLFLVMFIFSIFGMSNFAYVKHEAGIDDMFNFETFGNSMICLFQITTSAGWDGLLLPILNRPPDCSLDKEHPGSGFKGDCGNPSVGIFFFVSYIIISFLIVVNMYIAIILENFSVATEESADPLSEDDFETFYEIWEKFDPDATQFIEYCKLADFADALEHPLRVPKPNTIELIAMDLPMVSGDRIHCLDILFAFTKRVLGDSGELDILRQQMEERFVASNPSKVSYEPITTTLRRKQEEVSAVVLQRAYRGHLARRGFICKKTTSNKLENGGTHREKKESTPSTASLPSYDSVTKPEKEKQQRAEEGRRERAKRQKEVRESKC
NaV1.5, sequence (Q14524 other isoform, or with tags, fused parts or gaps): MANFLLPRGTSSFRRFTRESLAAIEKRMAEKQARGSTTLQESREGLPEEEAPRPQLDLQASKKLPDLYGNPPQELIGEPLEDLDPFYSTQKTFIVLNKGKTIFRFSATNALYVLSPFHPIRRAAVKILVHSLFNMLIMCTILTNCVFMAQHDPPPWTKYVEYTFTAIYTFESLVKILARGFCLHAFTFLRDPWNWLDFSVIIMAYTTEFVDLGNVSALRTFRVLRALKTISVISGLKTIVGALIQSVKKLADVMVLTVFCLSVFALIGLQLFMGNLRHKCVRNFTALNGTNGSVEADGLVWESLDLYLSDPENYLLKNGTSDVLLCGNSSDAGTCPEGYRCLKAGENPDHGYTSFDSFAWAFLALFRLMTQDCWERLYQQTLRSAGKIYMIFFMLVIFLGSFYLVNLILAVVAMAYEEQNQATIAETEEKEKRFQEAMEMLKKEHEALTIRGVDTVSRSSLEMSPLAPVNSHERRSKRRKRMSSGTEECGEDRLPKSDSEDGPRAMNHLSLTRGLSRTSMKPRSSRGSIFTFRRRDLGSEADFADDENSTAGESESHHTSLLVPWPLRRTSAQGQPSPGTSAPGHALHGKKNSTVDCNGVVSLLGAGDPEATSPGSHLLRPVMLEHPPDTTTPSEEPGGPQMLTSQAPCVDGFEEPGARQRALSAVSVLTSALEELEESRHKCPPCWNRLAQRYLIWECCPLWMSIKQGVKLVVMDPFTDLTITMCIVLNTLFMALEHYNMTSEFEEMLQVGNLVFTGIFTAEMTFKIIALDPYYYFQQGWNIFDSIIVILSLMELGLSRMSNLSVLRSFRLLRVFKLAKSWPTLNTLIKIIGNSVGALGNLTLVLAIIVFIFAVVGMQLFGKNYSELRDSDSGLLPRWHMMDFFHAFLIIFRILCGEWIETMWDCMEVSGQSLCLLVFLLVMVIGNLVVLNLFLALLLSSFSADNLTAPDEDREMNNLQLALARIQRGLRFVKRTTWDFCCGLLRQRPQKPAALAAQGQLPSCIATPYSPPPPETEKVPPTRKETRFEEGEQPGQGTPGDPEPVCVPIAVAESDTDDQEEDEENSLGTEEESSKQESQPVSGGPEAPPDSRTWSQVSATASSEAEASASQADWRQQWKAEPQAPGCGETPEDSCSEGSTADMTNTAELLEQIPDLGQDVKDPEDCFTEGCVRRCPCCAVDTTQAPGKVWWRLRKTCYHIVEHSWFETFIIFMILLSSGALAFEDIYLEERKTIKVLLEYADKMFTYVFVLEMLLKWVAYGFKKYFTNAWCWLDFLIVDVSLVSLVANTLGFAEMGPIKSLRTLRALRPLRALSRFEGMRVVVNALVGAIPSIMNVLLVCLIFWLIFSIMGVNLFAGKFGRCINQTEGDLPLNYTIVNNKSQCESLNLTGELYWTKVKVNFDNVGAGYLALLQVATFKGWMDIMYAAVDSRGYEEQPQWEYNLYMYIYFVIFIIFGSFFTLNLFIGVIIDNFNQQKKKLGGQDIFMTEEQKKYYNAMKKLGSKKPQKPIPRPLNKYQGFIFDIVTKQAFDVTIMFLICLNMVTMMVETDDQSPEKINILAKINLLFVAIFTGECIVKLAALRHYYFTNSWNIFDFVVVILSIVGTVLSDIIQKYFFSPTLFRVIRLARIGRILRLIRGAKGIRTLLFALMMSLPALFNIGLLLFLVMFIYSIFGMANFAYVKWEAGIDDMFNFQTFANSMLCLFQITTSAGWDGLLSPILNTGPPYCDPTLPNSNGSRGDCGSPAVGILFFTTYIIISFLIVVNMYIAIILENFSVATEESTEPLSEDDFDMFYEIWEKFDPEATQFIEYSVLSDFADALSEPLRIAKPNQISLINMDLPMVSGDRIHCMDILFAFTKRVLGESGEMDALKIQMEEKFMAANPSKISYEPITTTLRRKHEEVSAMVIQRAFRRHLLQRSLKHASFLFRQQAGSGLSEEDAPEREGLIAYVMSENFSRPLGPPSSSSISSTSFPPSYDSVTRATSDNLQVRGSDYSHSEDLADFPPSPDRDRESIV

One may read the IC50 as the concentration at which inhibition is half-maximal. On to `C[C@H](Oc1cc(F)c(S(=O)(=O)Nc2nccs2)cc1Cl)c1ccccc1Cl` [Example 117, (S)-5-chloro-4-(1-(2-chlorophenyl)ethoxy)-2-fluoro-N-(thiazol-2-yl)benzenesulfonamide], for which the IC50 came to 530 nM on NaV1.6 [1]; 6.78 µM on NaV1.1 [2]; 5.89 µM against NaV1.1 [3]; 55 nM against NaV1.6 [4]; 6.22 µM on NaV1.5 (setting [5]).
In the case of `C[C@H](Oc1cc(F)c(S(=O)(=O)Nc2nccs2)cc1Cl)c1c(F)cccc1F` [Example 119, (S)-5-chloro-4-(1-(2,6-difluorophenyl)ethoxy)-2-fluoro-N-(thiazol-2-yl)benzenesulfonamide], the IC50 at NaV1.6 [1] was 310 nM; against NaV1.1 [2], 8.94 µM; against NaV1.1 [3] it was 5.72 µM; against NaV1.6 [4], 23 nM; on NaV1.5 (setting [5]) it was 1.82 µM.
On the same counts, the results for `C[C@H](Oc1cc(F)c(S(=O)(=O)Nc2cscn2)cc1Cl)c1c(F)cccc1F` [Example 120, (S)-5-chloro-4-(1-(2,6-difluorophenyl)ethoxy)-2-fluoro-N-(thiazol-4-yl)benzenesulfonamide] are 1390 nM, 10 µM, 24.3 µM, 717 nM and 2.42 µM.
Consider `O=S(=O)(Nc1nccs1)c1cc(Cl)c(OCc2ccccc2F)cc1F` [Example 122, 5-chloro-2-fluoro-4-((2-fluorobenzyl)oxy)-N-(thiazol-2-yl)benzenesulfonamide], for which the IC50 is 1650 nM on NaV1.6 [1]; 10 µM on NaV1.1 [2]; 30 µM against NaV1.1 [3]; 121 nM against NaV1.6 [4]; 30 µM at NaV1.5 (setting [5]).
Take `C[C@H](Oc1cc(F)c(S(=O)(=O)Nc2cscn2)cc1Cl)c1ccccc1Cl` [Example 123, (S)-5-chloro-4-(1-(2-chlorophenyl)ethoxy)-2-fluoro-N-(thiazol-4-yl)benzenesulfonamide]: the IC50 against NaV1.6 [1] worked out at 1170 nM; against NaV1.1 [2], 10 µM; against NaV1.1 [3], 5.78 µM; against NaV1.6 [4], 716 nM; on NaV1.5 (setting [5]), 2.15 µM.
On the same counts, the results for `O=S(=O)(Nc1cscn1)c1c(F)cc(NCc2c(Cl)cccc2CN2CC(F)C2)cc1F` [Example 129, 4-((2-chloro-6-((3-fluoroazetidin-1-yl)methyl)benzyl)amino)-2,6-difluoro-N-(thiazol-4-yl)benzenesulfonamide] are 322 nM, 10 µM, 4.24 µM, 252 nM and 30 µM.
The like results for `Cc1c(NCc2c(F)cccc2CN2CC(F)C2)ccc(S(=O)(=O)Nc2cscn2)c1F` [Example 130, 2-fluoro-4-((2-fluoro-6-((3-fluoroazetidin-1-yl)methyl)benzyl)amino)-3-methyl-N-(thiazol-4-yl)benzenesulfonamide] were, in that order, 307 nM, 10 µM, 11.7 µM, 100 nM and 17.7 µM.
On the same counts, the results for `O=S(=O)(Nc1cccc(F)n1)c1cc(Cl)c(NCc2c(F)ccc(F)c2CN2CCC2)cc1F` [Example 131, 4-((2-(azetidin-1-ylmethyl)-3,6-difluorobenzyl)amino)-5-chloro-2-fluoro-N-(6-fluoropyridin-2-yl)benzenesulfonamide] are 376 nM, 10 µM, 8.33 µM, 126 nM and 10.9 µM.
Regarding `O=S(=O)(Nc1cscn1)c1ccc(NCc2c(F)cccc2CN2CC(F)C2)c(Cl)c1F` [Example 133, 3-chloro-2-fluoro-4-((2-fluoro-6-((3-fluoroazetidin-1-yl)methyl)benzyl)amino)-N-(thiazol-4-yl)benzenesulfonamide], the IC50 at NaV1.6 [1] was 418 nM; on NaV1.1 [2], 10 µM; at NaV1.1 [3], 6.36 µM; on NaV1.6 [4], 122 nM; at NaV1.5 (setting [5]) it was 9.21 µM.
The like results for `O=S(=O)(Nc1nccs1)c1cc(Cl)c(OCc2ccccc2CN2CCC2)cc1F` [Example 136, 4-((2-(azetidin-1-ylmethyl)benzyl)oxy)-5-chloro-2-fluoro-N-(thiazol-2-yl)benzenesulfonamide] were, in that order, 384 nM, 10 µM, 19.6 µM, 41 nM and 23.7 µM.
With `Cc1cc(S(=O)(=O)Nc2cscn2)c(F)cc1NCc1c(F)cccc1CN1CC(F)C1` [Example 137, 2-fluoro-4-((2-fluoro-6-((3-fluoroazetidin-1-yl)methyl)benzyl)amino)-5-methyl-N-(thiazol-4-yl)benzenesulfonamide], the IC50 at NaV1.6 [1] worked out at 588 nM; against NaV1.1 [2], 10 µM; against NaV1.1 [3], 30 µM; at NaV1.6 [4] it was 353 nM; on NaV1.5 (setting [5]) it was 30 µM.
Consider `O=S(=O)(Nc1cccc(F)n1)c1cc(Cl)c(NCc2c(F)cccc2CN2CCC2)cc1F` [Example 138, 4-((2-(azetidin-1-ylmethyl)-6-fluorobenzyl)amino)-5-chloro-2-fluoro-N-(6-fluoropyridin-2-yl)benzenesulfonamide], for which the IC50 was determined as 151 nM against NaV1.6 [1]; 10 µM on NaV1.1 [2]; 5.76 µM at NaV1.1 [3]; 43 nM at NaV1.6 [4]; 9.85 µM on NaV1.5 (setting [5]).
With `CCC(Nc1cc(F)c(S(=O)(=O)Nc2nccs2)cc1Cl)c1ccccc1` (centres unmarked) [Example 141, 5-chloro-2-fluoro-4-(1-phenylpropylamino)-N-(thiazol-2-yl)benzenesulfonamide], the IC50 came out at 479 nM on NaV1.6 [1]; 0.277 µM on NaV1.1 [2]; 3.33 µM against NaV1.1 [3]; 31 nM at NaV1.6 [4]; 21 µM on NaV1.5.
On the same counts, the results for `CC(C)CC(Nc1cc(F)c(S(=O)(=O)Nc2nccs2)cc1Cl)c1ccccc1` (centres unmarked) [Example 143, 5-chloro-2-fluoro-4-(3-methyl-1-phenylbutylamino)-N-(thiazol-2-yl)benzenesulfonamide] are 528 nM, 0.159 µM, 2.49 µM, 27 nM and 7.01 µM.
Turning to `O=S(=O)(Nc1cscn1)c1c(F)cc(NCc2c(F)cccc2CN2CC3(CCO3)C2)cc1F` [Example 156, 4-((2-((1-oxa-6-azaspiro[3.3]heptan-6-yl)methyl)-6-fluorobenzyl)amino)-2,6-difluoro-N-(thiazol-4-yl)benzenesulfonamide formate], the IC50 against NaV1.6 [1] turned out to be 146 nM; against NaV1.1 [2] it was 10 µM; on NaV1.1 [3] it was 24.8 µM; against NaV1.6 [4] it was 22 nM; on NaV1.5 (setting [5]), 30 µM.
The like results for `C[C@H](Nc1ccc(S(=O)(=O)Nc2ccncn2)c(F)c1Cl)c1ccccc1Cl` [Example 191, (S)-3-chloro-4-((1-(2-chlorophenyl)ethyl)amino)-2-fluoro-N-(pyrimidin-4-yl)benzenesulfonamide] were, in that order, 244 nM, 10 µM, 18.2 µM, 112 nM and 20 µM.
